Data: the NIST ThermoML archive (doi:10.1021/je100407f)
Values joined by “and” are separate entries in the source; they are usually repeats but may differ in a detail not shown here. Equal entries are not always repeated. Numbers after ± are expanded uncertainties.

Conditions: 101 kPa, Liquid mixture 1, Ring tensiometer

SMILES | interfacial tension (283.15 K) | interfacial tension (293.15 K) | interfacial tension (303.15 K) | interfacial tension (313.15 K) | interfacial tension (323.15 K) | interfacial tension (333.15 K)
CCCCCCn1cc[n+](C)c1.F[P-](F)(F)(F)(F)F [1-hexyl-3-methylimidazolium hexafluorophosphate] + CCCCCC | 9.01 ± 0.26 mN/m | 8.9 ± 0.26 mN/m | 8.83 ± 0.26 mN/m | 8.84 ± 0.26 mN/m | 8.73 ± 0.26 mN/m | 8.68 ± 0.26 mN/m
CCCCCn1cc[n+](C)c1.F[P-](F)(F)(F)(F)F [1-methyl-3-pentylimidazolium hexafluorophosphate] + CCCCCCC | 12.23 ± 0.3 mN/m | 12.12 ± 0.29 mN/m | 12.02 ± 0.29 mN/m | 11.9 ± 0.29 mN/m | 11.63 ± 0.29 mN/m | 11.53 ± 0.29 mN/m
CCCCCn1cc[n+](C)c1.F[P-](F)(F)(F)(F)F [1-methyl-3-pentylimidazolium hexafluorophosphate] + CCCCCC | 12.37 ± 0.3 mN/m | 11.92 ± 0.29 mN/m | – | 12 ± 0.29 mN/m and 11.93 ± 0.29 mN/m | 11.78 ± 0.29 mN/m | 11.67 ± 0.29 mN/m
CCCCn1cc[n+](C)c1.F[P-](F)(F)(F)(F)F [1-butyl-3-methylimidazolium hexafluorophosphate] + CCCCCCC | 14.81 ± 0.32 mN/m | 14.69 ± 0.32 mN/m | 14.67 ± 0.32 mN/m | 14.59 ± 0.32 mN/m | 14.5 ± 0.32 mN/m | 14.41 ± 0.32 mN/m
CCCCCCCC[n+]1ccn(C)c1.F[P-](F)(F)(F)(F)F [1-octyl-3-methylimidazolium hexafluorophosphate] + CCCCCC | 4.89 ± 0.23 mN/m | 4.77 ± 0.23 mN/m | 4.66 ± 0.23 mN/m | 4.52 ± 0.22 mN/m | 4.45 ± 0.22 mN/m | 4.46 ± 0.22 mN/m
CCCCCCn1cc[n+](C)c1.F[P-](F)(F)(F)(F)F [1-hexyl-3-methylimidazolium hexafluorophosphate] + CCCCCCC | 8.86 ± 0.26 mN/m | 8.74 ± 0.26 mN/m | 8.73 ± 0.26 mN/m | 8.69 ± 0.26 mN/m | 8.54 ± 0.26 mN/m | 8.47 ± 0.26 mN/m
